Data: US20100305068A1, “COMPOUNDS AND METHODS FOR MODULATING PROTEIN TRAFFICKING” (priority 2006, published 2010)

System: pdr5 ypt1^ts cells
Assay: microbe, parasite or virus in culture
Assay type: cell-based, yeast
Conditions: 37° C.; for minimal effective concentration: Saccharomyces cerevisiae, lowest concentration tested giving growth above the 0 μM background, read-out: ypt1-ts MRC (minimal rescue concentration); for minimal effective concentration / optical density, ypt1-ts, 0.39 / optical density, ypt1-ts, 0.78 / optical density, ypt1-ts, 1.56 / optical density, ypt1-ts, 3.13 / optical density, ypt1-ts, 6.25 / optical density, ypt1-ts, 12.5 / optical density, ypt1-ts, 25: Table 2; for optical density, ypt1-ts, 0.39: 0.39 μM compound; for optical density, ypt1-ts, 0.39 / optical density, ypt1-ts, 0.78 / optical density, ypt1-ts, 1.56 / optical density, ypt1-ts, 3.13 / optical density, ypt1-ts, 6.25 / optical density, ypt1-ts, 12.5 / optical density, ypt1-ts, 25: background (0 μM) 0.058; for optical density, ypt1-ts, 0.78: 0.78 μM compound; for optical density, ypt1-ts, 1.56: 1.56 μM compound; for optical density, ypt1-ts, 3.13: 3.13 μM compound; for optical density, ypt1-ts, 6.25: 6.25 μM compound; for optical density, ypt1-ts, 12.5: 12.5 μM compound; for optical density, ypt1-ts, 25: 25 μM compound; for optical density, 3.13 uM / optical density, 12.5 uM / optical density, 50 uM: Table 3, background (0 uM) 0.077; for optical density, 3.13 uM: 3.13 uM compound; for optical density, 12.5 uM: 12.5 uM compound; for optical density, 50 uM: 50 uM compound
Outline: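 Whole-cell yeast growth-rescue screen: pdr5 ypt1^ts cells (efflux pump inactivated), growth-arrested at 37° C., cultured with compounds at 37° C. Restoration of growth read by optical density.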

CCOC(=O)C1=C(C)NC(C)=C(C(=O)OC)C1c1cccc([N+](=O)[O-])c1 (stereo not shown) [NITRENDIPINE, reference compound]
minimal effective concentration: 3.13 µM | optical density, ypt1-ts, 0.39: 0.11 | optical density, ypt1-ts, 0.78: 0.089 | optical density, ypt1-ts, 1.56: 0.103 | optical density, ypt1-ts, 3.13: 0.143 | optical density, ypt1-ts, 6.25: 0.309 | optical density, ypt1-ts, 12.5: 0.403 | optical density, ypt1-ts, 25: 0.481

COc1ccc(CC(=O)c2ccc(O)cc2O)cc1 [ONONETIN]
minimal effective concentration: 6.25 µM | optical density, ypt1-ts, 0.39: 0.097 | optical density, ypt1-ts, 0.78: 0.08 | optical density, ypt1-ts, 1.56: 0.096 | optical density, ypt1-ts, 3.13: 0.111 | optical density, ypt1-ts, 6.25: 0.14 | optical density, ypt1-ts, 12.5: 0.3 | optical density, ypt1-ts, 25: 0.618

Clc1ccc(Cl)cc1 [PARA- DICHLORO- BENZENE]
optical density, 3.13 uM: 0.169 | optical density, 12.5 uM: 0.28 | optical density, 50 uM: 0.202

COc1c(C(C)C)oc2cc3oc(=O)ccc3cc12 [PEUCEDANIN]
optical density, 3.13 uM: 0.138 | optical density, 12.5 uM: 0.25 | optical density, 50 uM: 0.461

CCCCC1C(=O)N(c2ccccc2)N(c2ccccc2)C1=O [PHENYLBUTAZONE, reference compound]
minimal effective concentration: 6.25 µM | optical density, ypt1-ts, 0.39: 0.1 | optical density, ypt1-ts, 0.78: 0.084 | optical density, ypt1-ts, 1.56: 0.094 | optical density, ypt1-ts, 3.13: 0.11 | optical density, ypt1-ts, 12.5: 0.227 | optical density, ypt1-ts, 25: 0.452

O=C(/C=C/C=C/c1ccc2c(c1)OCO2)N1CCCCC1 [PIPERINE]
optical density, 3.13 uM: 0.107 | optical density, 12.5 uM: 0.135 | optical density, 50 uM: 0.377

CC(C)=CCOc1cc2oc(=O)ccc2cc1O [PRENYLETIN]
minimal effective concentration: 25 µM | optical density, ypt1-ts, 0.39: 0.087 | optical density, ypt1-ts, 0.78: 0.072 | optical density, ypt1-ts, 1.56: 0.07 | optical density, ypt1-ts, 3.13: 0.087 | optical density, ypt1-ts, 6.25: 0.09 | optical density, ypt1-ts, 12.5: 0.121 | optical density, ypt1-ts, 25: 0.292

COC(=O)[C@]1(C)CC[C@]2(C)CC[C@]3(C)C4=CC=C5C(=CC(=O)C(O)=C5C)[C@]4(C)CC[C@@]3(C)[C@@H]2C1 [PRISTIMERIN]
optical density, ypt1-ts, 0.39: 0.534 | optical density, ypt1-ts, 0.78: 0.332 | optical density, ypt1-ts, 1.56: 0.669 | optical density, ypt1-ts, 3.13: 0.703 | optical density, ypt1-ts, 6.25: 0.68 | optical density, ypt1-ts, 12.5: 0.676 | optical density, ypt1-ts, 25: 0.677

COC(=O)[C@]1(C)CC[C@]2(C)CC[C@]3(C)C4=CCc5c(cc(O)c(O)c5C)[C@]4(C)CC[C@@]3(C)[C@@H]2C1 [PRISTIMEROL]
minimal effective concentration: 6.25 µM | optical density, ypt1-ts, 0.39: 0.11 | optical density, ypt1-ts, 0.78: 0.079 | optical density, ypt1-ts, 1.56: 0.101 | optical density, ypt1-ts, 3.13: 0.114 | optical density, ypt1-ts, 6.25: 0.168 | optical density, ypt1-ts, 12.5: 0.362 | optical density, ypt1-ts, 25: 0.591
